The test system of data set [1] is MAO-B. The conditions noted are these: up to 10μM; cited from earlier work.
The subject of the next data set is MAO-A in rat brain. The conditions noted are these: cited from earlier work.
Data set [2] deals with MAO-A. The conditions noted are these: cited from earlier work.
For data set [3] the following is noted: cited from earlier work.
Data set [4] has as its target T1, MAO-B (Homo sapiens, UniProt P27338).
T1 construct: purchased BD Biosciences (San Jose, CA) or Corning Discovery Labware (Woburn, MA)
T1 sequence (P27338 1-520): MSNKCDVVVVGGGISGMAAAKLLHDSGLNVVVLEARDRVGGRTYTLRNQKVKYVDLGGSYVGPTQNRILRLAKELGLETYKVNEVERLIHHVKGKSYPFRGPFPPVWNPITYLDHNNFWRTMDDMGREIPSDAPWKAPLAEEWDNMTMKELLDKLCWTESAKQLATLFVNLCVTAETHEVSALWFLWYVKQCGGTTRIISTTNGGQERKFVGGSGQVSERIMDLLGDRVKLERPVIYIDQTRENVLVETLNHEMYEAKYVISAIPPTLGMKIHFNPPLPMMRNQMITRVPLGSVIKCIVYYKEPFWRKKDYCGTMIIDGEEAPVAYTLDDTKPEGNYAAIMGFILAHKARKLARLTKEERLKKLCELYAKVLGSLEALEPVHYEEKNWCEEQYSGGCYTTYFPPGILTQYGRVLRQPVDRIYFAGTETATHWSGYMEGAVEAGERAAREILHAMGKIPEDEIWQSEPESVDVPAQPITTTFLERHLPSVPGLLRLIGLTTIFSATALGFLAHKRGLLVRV
Kind of data set: MAO-B inhibition, kynuramine to 4-hydroxyquinoline, HPLC-fluorescence. In kind it is biochemical.

The conditions of data set [5]: rats, 56 or 168 mg/kg/day by gavage for 14 continuous days; cited from earlier work.
The target in data set [6] is T2, MAO-A (Homo sapiens, UniProt P21397).
T2 construct: purchased BD Biosciences (San Jose, CA) or Corning Discovery Labware (Woburn, MA)
T2 sequence (P21397 1-527): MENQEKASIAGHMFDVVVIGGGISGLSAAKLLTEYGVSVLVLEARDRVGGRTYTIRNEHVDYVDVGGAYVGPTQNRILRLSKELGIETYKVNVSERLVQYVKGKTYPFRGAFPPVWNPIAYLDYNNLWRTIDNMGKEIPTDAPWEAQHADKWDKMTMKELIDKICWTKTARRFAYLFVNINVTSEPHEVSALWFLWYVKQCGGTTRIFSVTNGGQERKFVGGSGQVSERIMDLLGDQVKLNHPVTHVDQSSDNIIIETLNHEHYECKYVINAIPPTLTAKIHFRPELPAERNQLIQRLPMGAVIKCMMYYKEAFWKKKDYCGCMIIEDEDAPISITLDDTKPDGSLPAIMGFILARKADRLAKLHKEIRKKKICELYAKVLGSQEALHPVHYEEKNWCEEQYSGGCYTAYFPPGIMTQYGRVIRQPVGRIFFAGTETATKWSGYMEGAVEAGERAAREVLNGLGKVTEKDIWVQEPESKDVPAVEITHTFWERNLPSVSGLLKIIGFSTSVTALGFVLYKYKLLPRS
Kind of data set: MAO-A inhibition, kynuramine to 4-hydroxyquinoline, HPLC-fluorescence. Format: biochemical.

The target of data set [7] is T1, MAO-B. Kind of data set: Inhibition mechanism studies (competition, time dependence) with MAO-B. Format: biochemical.
The conditions of data set [8]: human, 125mg twice daily orally for 6-8 weeks; cited from earlier work.
The target of data set [9] is T2, MAO-A. The conditions noted are these: competitive; cited from earlier work.
In data set [10] the target is T1, MAO-B. As to conditions: competitive; cited from earlier work.
Where [11] appears, read: highest expected luminal concentration: curcumin 140, guaiacol 435, isoeugenol 110, pterostilbene 270, resveratrol 94, zingerone 51 µM, p < 0.05 vs control.
Setting [12] is: kynuramine 10 µM, MAO-A 0.01 mg/mL, 15 min.

“Also recorded” adds a separate entry of the source. Read-outs that look alike come from different tables or passages of the source.

Results on three compounds are retold here after article PMC6364133, “Selectivity of Dietary Phenolics for Inhibition of Human Monoamine Oxidases A and B” (BioMed Research International, 2019).

For orientation: IC50 means the concentration at which inhibition is half-maximal. As usually defined, the Ki is a dissociation constant, usually derived from enzyme kinetics or from competition with a known ligand.

In the case of `Oc1ccc(/C=C/c2cc(O)cc(O)c2)cc1` [resveratrol], the MAO-B inhibition entry in the data set on MAO-B [1] is “did not significantly inhibit”. Moreover, in the data set with MAO-A in rat brain, the IC50 was 2 µM and the Ki is 2.5 µM. In addition, in the data set on MAO-A [2], the MAO-A inhibition entry was “inhibitor of MAO-A”. The plasma protein binding in data set [3] was 91%. Further, the affinity at MAO-B [4] (from IC50 assuming competitive inhibition), expressed as Ki, was 10.2 µM.

Turning to `COc1cc(/C=C/c2ccc(O)cc2)cc(OC)c1` [pterostilbene], the oral bioavailability in data set [5] was 80%. In addition, the “inhibition of MAO-A activity in screening” value at MAO-A [6] (setting [11]) was “significantly inhibited”. In addition, at MAO-A [6] (setting [12]), the IC50 is 13.4 ± 1.5 µM and the “MAO-A Hill coefficient” value is listed as 1.7 ± 0.3. On MAO-A [6] (ratio of MAO-B IC50/MAO-A IC50), the “Selectivity Index” value is on record as 0.0103. Further, the “mechanism of MAO-B inhibition” value on MAO-B [7] is “competitive time-independent; also recorded: competitive, time-independent”. For the same compound, on MAO-B [7] (0.7 μM, preincubation 0-60 min), the “time profile of MAO-B activity on preincubation” value is “not significantly different from the control”. Moreover, the “Vmax of kynuramine with MAO-B in presence of inhibitor” value at MAO-B [7] (pterostilbene 0.45 μM, kynuramine 2-450 μM) is listed as 3.28 ± 0.19 nmol/min/mg protein. In addition, the “inhibition of MAO-B activity in screening” value on MAO-B [4] (setting [11]) is listed as “significantly inhibited”. This compound also had a half-maximal inhibitory concentration (IC50) on MAO-B [4] (kynuramine 10 µM, MAO-B 0.01 mg/mL, 15 min) of 0.138 ± 0.013 µM. In addition, in data set [8], the plasma low-density lipoproteins entry was “slightly raised”; the “systolic and diastolic blood pressure” value was “reduces”.

Consider `C=CCc1ccc(O)c(OC)c1` [eugenol], for which the results for the Ki on MAO-A [9] and at MAO-B [10] were 26 µM and 211 µM, respectively.
